Results from patent US7485626B2, “Combinations of enzyme inhibitor-containing preparations and the use thereof” (IMTM GmbH, priority 2000, dated 2009).

Assays:
Type in all cases: cell-based
[1] = tested on: activated human peripheric T cells; assay: Proliferation of activated human peripheric T cells (WST-1 cell proliferation assay); conditions: single or simultaneous administration of I49 and APN inhibitors (Actinonin and Probestin); activated with phytohemagglutinine and phorbol-12-myristate-13-acetate; 72 h; FIG. 9
Method: FIG. 9: The T cells, with the exception of the untreated control, were activated by an addition of phytohemagglutinine and phorbol-12-myristate-13-acetate to the culture medium and were incubated for a time period of 72 h in the presence of the above-mentioned inhibitors single and in combination. Subsequently, the number of metabolically active cells was determined by using the commercially available WST-1 cell proliferation assay (Takara Inc.) in accordance with the provisions of the manufacturer.

[2] = tested on: human peripheric mononuclear cells (MNZ); assay: Proliferation of PHA-activated human mononuclear cells (WST-1 cell proliferation assay); conditions: 72 h; for Proliferation of human peripheric mononuclear cells (MNZ), number of metabolically active cells: single and simultaneous administration of I49 and Actinonin, PHA, FIG. 7; for Proliferation of PHA-activated human mononuclear cells (MNZ), number of metabolically active cells: single or simultaneous administration of I49 and Apstatin (X-Pro-aminopeptidase inhibitor), FIG. 10
Method: FIG. 7: The MNZ were incubated for a time period of 72 h without addition (control), with an addition of the mitogenic lectin phytohemagglutinin (PHA), and with the addition of PHA and the inhibitors mentioned above, respectively. Subsequently, the number amount of metabolically active cells was determined by using the commercially available WST-1 cell proliferation assay (Takara Inc.) in accordance with the provisions of the manufacturer.
FIG. 10: The mononuclear cells (MNZ) were incubated for a time period of 72 h in the presence of the inhibitors mentioned above single and in combination. Subsequently, the number of metabolically active cells was determined by using the commercially available WST-1 cell proliferation assay (Takara Inc.) in accordance with the provisions of the manufacturer.

[3] = tested on: human peripheric T lymphocytes; assay: DNA synthesis of human T lymphocytes (3[H]-thymidine incorporation); conditions: 72 h incubation; for DNA synthesis of human peripheric T lymphocytes: simultaneous administration of I49 (DP IV inhibitor) and Actinonin (APN inhibitor), FIG. 1
Method: The T cells were incubated for 72 h in the presence of said inhibitors and subsequently, the DNA synthesis rate was determined via a measurement of the ^3[H]-thymidin incorporation, as was described by Reinhold et al. [D. Reinhold et al.: “Inhibitors of dipeptidyl peptidase IV induce secretion of transforming growth factor β1 in PWM-stimulated PBMNC and T cells”, Immunology 1997, 91, 354-360].
Human peripheric T cells were incubated over 3 days with the concentrations of the inhibitors shown. Subsequently, ^3[H]-methyl thymidine was added to the culture medium, and the amount of ^3[H]-thymidine inserted into the DNA was measured after further 6 hours.
The T cells were incubated for 72 h in the presence of said inhibitors, and the DNA synthesis rate was determined subsequently by the measurement of the ^3[H]-thymidine incorporation, as was described by Reinhold et al. [D. Reinhold et al.: “Inhibitors of dipeptidyl peptidase IV induce secretion of transforming growth factor β1 in PWM-stimulated PBMNC and T cells”, Immunology 1997, 91, 354-360].
FIG. 3 show a the synergistic and dose-dependent effect of inhibitors of DP IV (I49) and of prolyl oligopeptidase (Boc-Ala-Thia) on the DNA synthesis of human peripheric T lymphocytes. Human T cells were incubated for three days with the concentrations of inhibitors mentioned above. Subsequently, ^3[H]-methyl thymidine was added to the culture medium, and the amount of ^3[H]-thymidine incorporated into the DNA was measured after further 6 hours.
Human T cells were incubated for three days with the concentrations of inhibitors mentioned above. Subsequently, ^3[H]-methyl thymidine was added to the culture medium, and the amount of ^3[H]-thymidine incorporated into the DNA was measured after further 6 hours.

[4] = tested on: human peripheric mononuclear cells (MNZ); assay: DNA synthesis of human peripheric mononuclear cells (3[H]-thymidine incorporation); conditions: 72 h incubation
Method: The MNZ were incubated for 72 h in the presence of said inhibitors, and the DNA synthesis rate was determined subsequently by the measurement of the ^3[H]-thymidine incorporation, as was described by Reinhold et al. [D. Reinhold et al.: “Inhibitors of dipeptidyl peptidase IV induce secretion of transforming growth factor β1 in PWM-stimulated PBMNC and T cells”, Immunology 1997, 91, 354-360].
Human MNZ were incubated for three days with the concentrations of inhibitors mentioned above. Subsequently, ^3[H]-methyl thymidine was added to the culture medium, and the amount of ^3[H]-thymidine incorporated into the DNA was measured after further 6 hours.

[5] = tested on: human T cell line KARPAS-299; assay: Proliferation of KARPAS-299 cells (WST-1 cell proliferation assay); conditions: single and simultaneous administration of I49 and APN inhibitors (Actinonin and Probestin); FIG. 8
Method: FIG. 8: The KARPAS-299 cells were incubated without addition (control) and in the presence of single inhibitors mentioned above as well as in the presence of combinations thereof, respectively. Subsequently, the number of metabolically active cells was determined by using the commercially available WST-1 cell proliferation assay (Takara Inc.) in accordance with the provisions of the manufacturer.

[6] = simultaneous administration of I49 (DP IV inhibitor) and actinonine (APN inhibitor), FIG. 2
[7] = simultaneous administration of I49 (DP IV inhibitor) and Boc-Ala-thiazolidid (prolyl oligopeptidase inhibitor), FIG. 3
[8] = simultaneous administration of I49 (DP IV inhibitor) and Boc-Ala-Thiazolidid (prolyl oligopeptidase inhibitor), FIG. 4
[9] = simultaneous administration of I49 (DP IV inhibitor) and Captopril (ACE inhibitor), FIG. 5
[10] = simultaneous administration of I49 (DP IV inhibitor) and Captopril (ACE inhibitor), FIG. 6

Structure (SMILES) | Proliferation of activated human peripheric T cells, number of metabolically active cells [1] | Proliferation of human peripheric mononuclear cells (MNZ), number of metabolically active cells [2] | DNA synthesis of human peripheric T lymphocytes [3] | DNA synthesis of human peripheric mononuclear cells (MNZ) [4, 6] | Proliferation of the human T cell line KARPAS-299, number of metabolically active cells [5] | Proliferation of PHA-activated human mononuclear cells (MNZ), number of metabolically active cells [2] | DNA synthesis of human T lymphocytes [3, 7] | DNA synthesis of human peripheric mononuclear cells (MNZ) [4, 8] | DNA synthesis of human T lymphocytes [3, 9] | DNA synthesis of human peripheric mononuclear cells (MNZ) [4, 10]
CCCCC[C@H](CC(=O)NO)C(=O)N[C@H](C(=O)N1CCC[C@H]1CO)C(C)C [Actinonin] | Inhibition of the Proliferation | Inhibition of the Proliferation | inhibited in a superadditive manner | inhibited in a superadditive manner | Inhibition of the Proliferation | – | – | – | – | –
C[C@H](NC(=O)[C@@H]1CCCN1C(=O)[C@@H]1CCCN1C(=O)[C@@H](O)[C@H](N)Cc1ccccc1)C(N)=O [Apstatin] | – | – | – | – | – | Inhibition of the Proliferation | – | – | – | –
CC(NC(=O)OC(C)(C)C)C(=O)N1CCSC1 (stereo not drawn) [Boc-Ala-thiazolidid] | – | – | – | – | – | – | inhibited in a superadditive manner | inhibited in a superadditive manner | – | –
C[C@H](CS)C(=O)N1CCC[C@H]1C(=O)O [Captopril] | – | – | – | – | – | – | – | – | inhibited in a superadditive manner | inhibited in a superadditive manner
NC(CCCCNC(=O)OCc1ccc([N+](=O)[O-])cc1)C(=O)N1CCSC1 (stereo not shown) [I49, Lys[Z(NO2)]-thiazolidid] | Inhibition of the Proliferation | Inhibition of the Proliferation | inhibited in a superadditive manner | inhibited in a superadditive manner | Inhibition of the Proliferation | Inhibition of the Proliferation | inhibited in a superadditive manner | inhibited in a superadditive manner | inhibited in a superadditive manner | inhibited in a superadditive manner
CC(C)C[C@H](NC(=O)[C@@H](O)[C@H](N)Cc1ccccc1)C(=O)N1CCC[C@H]1C(=O)N1CCC[C@H]1C(=O)O [Probestin] | Inhibition of the Proliferation | – | – | – | Inhibition of the Proliferation | – | – | – | – | –
